Measurements taken from PMC6345558 (European journal of medicinal chemistry, 2018).

Tests used:
[1] = system: MCF7 cancer cells; experiment: MTT cytotoxicity, MCF7 breast cancer cells; format: cell-based, human; conditions: for IC50: read-out: IC50 MCF7, MTT assay, 24 h incubation
[2] = system: MDA-MB-231 cancer cells; experiment: MTT cytotoxicity, MDA-MB-231 breast cancer cells; format: cell-based, human; conditions: read-out: IC50 MDA-MB-231; MTT assay, 24 h incubation
[3] = system: NIH3T3 cells; experiment: MTT growth inhibition, NIH3T3 control cells; format: cell-based; conditions: read-out: Half inhibitory growth concentration, IG50, NIH3T3, empty plasmid control, 48 h incubation at 37 °C
[4] = target: MRP1 (Homo sapiens, UniProt P33527); experiment: Flow cytometry, inhibition of calcein AM efflux by MRP1; format: cell-based; conditions: compound 20 µM, 0.2 µM calcein AM, transfected cells
Chain of MRP1 (P33527 whole entry): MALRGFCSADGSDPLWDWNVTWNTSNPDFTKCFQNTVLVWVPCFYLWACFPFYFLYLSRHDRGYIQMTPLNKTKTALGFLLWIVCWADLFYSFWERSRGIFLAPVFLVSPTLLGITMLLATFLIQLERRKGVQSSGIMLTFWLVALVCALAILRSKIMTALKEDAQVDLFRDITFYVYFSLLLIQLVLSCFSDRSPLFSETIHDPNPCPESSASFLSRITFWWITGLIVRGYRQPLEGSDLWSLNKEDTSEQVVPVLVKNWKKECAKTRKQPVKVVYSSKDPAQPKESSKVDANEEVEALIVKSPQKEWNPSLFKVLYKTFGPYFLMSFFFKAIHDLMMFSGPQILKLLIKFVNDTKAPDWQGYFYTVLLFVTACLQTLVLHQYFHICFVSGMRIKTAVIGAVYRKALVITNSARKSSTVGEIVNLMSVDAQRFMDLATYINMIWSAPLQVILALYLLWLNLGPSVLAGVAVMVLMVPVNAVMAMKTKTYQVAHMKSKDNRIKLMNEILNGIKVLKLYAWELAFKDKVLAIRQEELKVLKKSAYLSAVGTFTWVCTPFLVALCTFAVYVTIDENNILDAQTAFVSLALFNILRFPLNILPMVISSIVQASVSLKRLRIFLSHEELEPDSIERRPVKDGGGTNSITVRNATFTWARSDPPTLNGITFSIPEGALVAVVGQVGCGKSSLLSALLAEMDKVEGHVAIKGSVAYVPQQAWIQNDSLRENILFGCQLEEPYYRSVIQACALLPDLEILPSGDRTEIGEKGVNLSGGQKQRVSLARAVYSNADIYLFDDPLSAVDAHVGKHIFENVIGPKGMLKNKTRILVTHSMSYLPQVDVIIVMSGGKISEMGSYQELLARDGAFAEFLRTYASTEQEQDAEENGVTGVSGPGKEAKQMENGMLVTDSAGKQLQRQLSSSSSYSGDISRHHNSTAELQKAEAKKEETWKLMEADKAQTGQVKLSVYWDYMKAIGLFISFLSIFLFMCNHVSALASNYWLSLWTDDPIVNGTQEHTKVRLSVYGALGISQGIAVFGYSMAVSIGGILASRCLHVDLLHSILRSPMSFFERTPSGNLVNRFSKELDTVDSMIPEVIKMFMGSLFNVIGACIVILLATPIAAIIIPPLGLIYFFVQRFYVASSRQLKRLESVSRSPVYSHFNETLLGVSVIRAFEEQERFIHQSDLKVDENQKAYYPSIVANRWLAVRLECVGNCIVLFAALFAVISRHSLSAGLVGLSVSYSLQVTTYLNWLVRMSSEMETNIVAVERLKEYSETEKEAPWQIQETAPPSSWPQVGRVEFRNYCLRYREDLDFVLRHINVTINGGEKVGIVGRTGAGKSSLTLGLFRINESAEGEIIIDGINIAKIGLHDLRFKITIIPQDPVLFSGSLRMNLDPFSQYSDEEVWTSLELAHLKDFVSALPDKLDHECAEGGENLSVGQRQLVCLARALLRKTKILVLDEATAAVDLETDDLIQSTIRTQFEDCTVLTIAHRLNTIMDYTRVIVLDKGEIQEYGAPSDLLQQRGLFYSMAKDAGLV

[5] = target: MRP2 (Homo sapiens, UniProt Q92887); experiment: Flow cytometry, inhibition of calcein AM efflux by MRP2; format: cell-based; conditions: compound 20 µM, 0.2 µM calcein AM, transfected cells
Chain of MRP2 (Q92887 whole entry): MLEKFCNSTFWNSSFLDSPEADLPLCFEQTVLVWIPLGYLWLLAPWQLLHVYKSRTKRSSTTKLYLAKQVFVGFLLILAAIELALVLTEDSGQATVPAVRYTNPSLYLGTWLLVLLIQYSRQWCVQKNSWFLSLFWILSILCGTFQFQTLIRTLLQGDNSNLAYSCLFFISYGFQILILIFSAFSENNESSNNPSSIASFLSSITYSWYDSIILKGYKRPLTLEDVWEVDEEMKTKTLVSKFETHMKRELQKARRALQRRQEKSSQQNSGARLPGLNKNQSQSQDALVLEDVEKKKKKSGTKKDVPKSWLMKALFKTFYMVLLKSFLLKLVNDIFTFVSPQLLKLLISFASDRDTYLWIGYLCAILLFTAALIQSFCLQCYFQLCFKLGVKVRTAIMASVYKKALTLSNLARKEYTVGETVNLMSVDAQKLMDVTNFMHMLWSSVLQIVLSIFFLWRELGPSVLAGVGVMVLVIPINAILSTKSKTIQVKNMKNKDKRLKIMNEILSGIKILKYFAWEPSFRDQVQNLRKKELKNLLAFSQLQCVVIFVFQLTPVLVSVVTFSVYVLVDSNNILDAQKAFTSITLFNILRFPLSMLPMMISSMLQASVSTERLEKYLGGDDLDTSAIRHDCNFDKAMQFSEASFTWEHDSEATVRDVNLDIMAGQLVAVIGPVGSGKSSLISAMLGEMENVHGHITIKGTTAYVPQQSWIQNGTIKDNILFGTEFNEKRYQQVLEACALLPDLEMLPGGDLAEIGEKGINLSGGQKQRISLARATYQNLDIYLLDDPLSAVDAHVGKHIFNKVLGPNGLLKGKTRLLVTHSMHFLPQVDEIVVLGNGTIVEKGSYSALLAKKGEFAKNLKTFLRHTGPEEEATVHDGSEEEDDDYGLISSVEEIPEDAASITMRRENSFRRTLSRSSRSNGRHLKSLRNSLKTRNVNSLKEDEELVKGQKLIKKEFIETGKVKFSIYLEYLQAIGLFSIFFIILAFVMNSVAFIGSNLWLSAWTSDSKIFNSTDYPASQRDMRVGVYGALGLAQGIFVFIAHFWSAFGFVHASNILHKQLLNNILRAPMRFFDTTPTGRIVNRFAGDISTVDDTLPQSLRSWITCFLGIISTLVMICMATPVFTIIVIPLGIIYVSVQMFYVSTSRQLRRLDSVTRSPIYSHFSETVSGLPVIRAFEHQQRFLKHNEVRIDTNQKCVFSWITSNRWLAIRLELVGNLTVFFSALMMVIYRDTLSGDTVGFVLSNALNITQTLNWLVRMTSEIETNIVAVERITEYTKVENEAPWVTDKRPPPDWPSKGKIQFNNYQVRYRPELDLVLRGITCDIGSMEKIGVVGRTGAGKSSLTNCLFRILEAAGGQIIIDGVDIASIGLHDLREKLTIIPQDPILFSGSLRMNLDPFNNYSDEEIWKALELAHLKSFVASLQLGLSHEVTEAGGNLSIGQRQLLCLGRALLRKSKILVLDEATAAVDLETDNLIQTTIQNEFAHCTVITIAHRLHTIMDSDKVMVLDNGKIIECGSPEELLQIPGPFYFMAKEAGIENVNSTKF

[6] = system: NIH3T3 cells overexpressing P-gp; experiment: MTT growth inhibition, NIH3T3 cells overexpressing P-gp
[7] = system: HEK293 cells overexpressing MRP1; experiment: MTT growth inhibition, HEK293 cells overexpressing MRP1; conditions: HEK293/MRP1 vs HEK293
[8] = system: HEK293 cells overexpressing BCRP; experiment: MTT growth inhibition, HEK293 cells overexpressing BCRP; conditions: HEK293/BCRP vs HEK293
[9] = target: T1, BCRP (ABCG2) (Homo sapiens, UniProt Q9UNQ0); experiment: Flow cytometry, inhibition of mitoxantrone efflux by BCRP; conditions: compound 20 µM, 5 µM mitoxantrone, transfected cells
T1 sequence (Q9UNQ0 1-655): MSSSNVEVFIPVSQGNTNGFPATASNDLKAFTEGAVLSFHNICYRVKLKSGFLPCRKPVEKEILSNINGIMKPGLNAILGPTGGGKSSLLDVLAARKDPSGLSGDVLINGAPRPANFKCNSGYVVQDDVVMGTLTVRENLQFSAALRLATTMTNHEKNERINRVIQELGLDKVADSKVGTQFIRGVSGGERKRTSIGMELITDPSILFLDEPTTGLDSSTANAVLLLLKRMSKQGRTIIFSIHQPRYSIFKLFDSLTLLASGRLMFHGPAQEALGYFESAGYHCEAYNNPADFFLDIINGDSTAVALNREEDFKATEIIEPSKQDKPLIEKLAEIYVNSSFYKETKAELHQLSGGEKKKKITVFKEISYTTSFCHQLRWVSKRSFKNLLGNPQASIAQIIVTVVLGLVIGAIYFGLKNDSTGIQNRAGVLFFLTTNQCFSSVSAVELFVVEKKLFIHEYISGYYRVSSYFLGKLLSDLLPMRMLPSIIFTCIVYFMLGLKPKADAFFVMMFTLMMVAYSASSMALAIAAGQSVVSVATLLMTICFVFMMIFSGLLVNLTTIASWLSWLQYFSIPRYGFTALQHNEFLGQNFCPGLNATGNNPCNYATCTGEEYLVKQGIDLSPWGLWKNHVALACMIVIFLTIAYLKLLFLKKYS

SMILES	fold more cytotoxic than Ru2 ([1]; MCF7 cancer cell line)	IC50 [1] [µM]	IC50 [2] [µM]	IC50 [3] [µM]	Inhibition of MRP1 substrate efflux [4]	Inhibition of MRP2 substrate efflux [5]	IG50 times higher than for non-transfected cells, P-gp ([6]; NIH3T3/P-gp vs NIH3T3) [times]	IC50 ([6]; read-out: Half inhibitory growth concentration, IG50, P-gp, NIH3T3 overexpressing P-gp, 48 h incubation at 37 °C, MTT) [µM]	IG50 times higher than for non-transfected cells, MRP1 [7] [times]	IG50 times higher than for non-transfected cells, BCRP [8] [times]	Inhibition of BCRP (ABCG2) substrate efflux [9]
O=S(=O)([O-])C(F)(F)F.OCc1ccnc(-c2cc(CO)ccn2)c1.[Ru+2].c1cc[cH-]c1.c1ccc(P(c2ccccc2)c2ccccc2)cc1 [Ru1, [Ru(η^5-Cp)(PPh3)(2,2’-bipyridine-4,4’-dimethanol)][CF3SO3]]	~ 7 fold	4.61 ± 0.96	13.9 ± 2.8	28	did not display any inhibition property	did not display any inhibition property	2.4	~70	2	2.8	did not display any inhibition property
N.N.[Cl][Pt][Cl] [Cisplatin, reference compound]	–	38 ± 1.41	122 ± 25	–	–	–	–	–	–	–	–
